Data set [1] relates to neonatal rat ventricular myocytes. The data set is described as follows: Cell viability (MTT) after ischemic treatment and post-ischemic reperfusion in primary cultures. Format: cell-based. As to conditions: for effect of dbcAMP + PMA on cell viability under co-application of CFTR channel blocker: DP plus NPPB 50 µM, glibenclamide 500 µM, gemfibrozil 2 mM or 9AC 2 mM during ischemic treatment, MTT after 96 hours reperfusion. The protocol:
Primary cultures of ventricular myocytes were prepared from the hearts of neonatal rats by enzyme treatment. M199+10% FBS was used as culture medium. To reduce the number of contaminating non-myocardial cells, the medium was supplemented with 100 µM BrdU during incubation. The primary cell cultures of rat myocardial cells were subjected to ischemic treatment (removal of glucose and oxygen) and post-ischemic reperfusion according to the following procedures. The medium was replaced with a glucose-free solution, which contained 108 mM NaCl, 0.5 mM MgCl2, 5.4 mM KCl, 1mM CaCl2, and 5 mM HEPES (pH adjusted to 7.4 with NaHCO3), and were incubated at 37°C for 8 hours under anaerobic conditions, which were created by replacing air with a gas mixture of 95% Ar and 5% CO2. Immediately after incubation, the solution was replaced with a glucose-containing normal medium (M199+10% FBS), and then left in a CO2 incubator (95% air (20% O2), 5% CO2, 37°C) for 96 hours (reperfusion: re-supply of glucose/reoxygenation). Cl^- channel blocker (NPPB) was administered to the primary cell cultures of rat ventricular myocytes 1 hour prior to ischemic treatment, or at the start of ischemic treatment that lasted 8 hours. Cl- channel blocker (NPPB) was also administered over a time period of 18 hours after the start of post-ischemic reperfusion. Cell viability was assayed using MTT. To ensure accuracy in viable cell count, the assay was performed using cells obtained 96 hours after the start of post-ischemic reperfusion (Figure 1).
Primary cultures of rat ventricular myocytes were prepared and cultured in the manner described in Example 1. The procedures of Example 1 were also used to expose the primary cultures of rat ventricular myocytes to ischemic treatment (removal of glucose and oxygen) and post-ischemic reperfusion.
During ischemic treatment, the primary cultures of rat ventricular myocytes were administered with CFTR channel activator (PKA activator dbcAMP (1mM) or PKC activator PMA (100 nM), or both (DP)), or CFTR channel activator + CFTR channel blocker (NPPB (50 µM), glibenclamide (500 µM), gemfibrozil (2 mM), or 9AC (2 mM)). Following administration, ischemia was induced for 8 hours, and, after 96 hours of subsequent reperfusion, cell viability was assayed using MTT (Figure 2).
During ischemic treatment, the primary cultures of rat ventricular myocytes were administered with CFTR channel activator (milrinone (0.73 µg, 1 ml), isoproterenol (10 nM), and PMA (100 nM) used together (MIP)), or CFTR channel activator + CFTR channel blocker (NPPB (50 µM), glibenclamide (500 µM), gemfibrozil (2 mM), or 9AC (2 mM)). Following administration, ischemia was induced for 8 hours, and, after 96 hours of subsequent reperfusion, cell viability was assayed using MTT (Figure 3).

For data set [2], the system named is rat ventricular myocytes. The data set is described as follows: Necrotic cell death by Hoechst 33342 / propidium iodide double staining immediately after ischemia. Format: cell-based. As to conditions: Ventricular myocyte, NPPB 50 µM at start of ischemic treatment, after 8 hours of ischemia, group without reagent 44.4%, read-out: cells stained by PI. The procedure:
Primary cultures of rat ventricular myocytes were prepared and cultured in the manner described in Example 1. The procedures of Example 1 were also used to expose the primary cultures of rat ventricular myocytes to ischemic treatment (removal of glucose and oxygen). […] Immediately after ischemia, cells were double stained to examine a rate of necrotic cell death, using Hoechst 33342 and propidium iodide (PI) according to a method known in the art. Hoechst 33342 stains the nucleus of all cells, and propidium iodide (PI) stains only dead cells with necrosis-induced membrane injury.

For data set [3], the system named is rat ventricular myocytes. The data set is described as follows: Nuclear DNA fragmentation (apoptosis) by Cell Death Detection ELISA, enrichment factor. Type of data set: cell-based. As to conditions: NPPB 50 µM or dbcAMP 1mM + PMA 100 nM. The procedure: Primary cultures of rat ventricular myocytes were prepared and cultured in the manner described in Example 1. The procedures of Example 1 were also used to expose the primary cultures of rat ventricular myocytes to ischemic treatment (removal of glucose and oxygen) and post-ischemic reperfusion. The primary cultures of rat ventricular myocytes were administered with CFTR channel activator (PKA activator dbcAMP (1mM) + PKC activator PMA (100 nM)), or CFTR channel blocker (NPPB (50 µM)). Administration was made at the start of ischemic treatment, which lasted 8 hours. Fragmentation of nuclear DNA in the cells was assayed immediately after ischemia or 96 hours after post-ischemic reperfusion (Figure 5). Specifically, DNA fragmentation was assayed using a method (DNA fragmentation detecting method (Cell Death Detection ELIZA kit^PLUS (Roche Diagnostics), which specifically detects […] that are characteristics of apoptotic cells. The result of measurement was obtained as enrichment factor, which was calculated according to the following formula. Enrichment factor (rate of nuclear DNA fragmentation) = absorbance of sample (dead cells)/absorbance of control (untreated cells) [formula]

The next data set relates to ischemic cardiac muscle. As to conditions: cited from earlier work; for effect on ischemic cardiac muscle: administered after a period of ischemia; for size of infarct in ischemic cardiac muscle: pre-ischemic administration.
The conditions of data set [4]: extended period (45 minutes); cited from earlier work.
For data set [5] the following is noted: cited from earlier work.
The mark [6] stands for this setting: dbcAMP 1mM and/or PMA 100 nM during ischemic treatment, 8 hours ischemia, 96 hours reperfusion, MTT (Figure 2).

The values that follow come from patent EP1839675A1, “NOVEL METHOD OF PROTECTING ISCHEMIC CARDIOPATHY” (Japan Science and Technology Agency, priority 2004, dated 2006).

Structures are written as SMILES.

A word on the half-life: it is the time in which the quantity being followed falls by half.

Consider `O=C(O)c1cc([N+](=O)[O-])ccc1NCCCc1ccccc1` [NPPB, 5-nitro-2-2(3-phenylpropylamino)-benzoate], for which the cell viability entry in data set [1] (50 µM NPPB administered during ischemic treatment (8 hours), MTT 96 hours after start of reperfusion) is “significant reduction”. Also, the “effect of dbcAMP + PMA on cell viability under co-application of CFTR channel blocker” value (shortened to “effect of dbcAMP + PMA on cell viability”) in data set [1] is “completely abolished”. In addition, in the data set on rat ventricular myocytes [2], the cytotoxicity at 50 µM amounted to 90.3%. Moreover, the “level of DNA fragmentation” value in the data set with rat ventricular myocytes [3] (96 hours after reperfusion, compared with non-administered group) was “no significant difference”; with rat ventricular myocytes [3] (immediately after 8 hours ischemia, compared with non-ischemic cells (score of 1)) it was “the same”.
For `CCCCCCCCCCCCCC(=O)O[C@@H]1[C@@H](C)[C@@]2(O)[C@@H](C=C(CO)C[C@]3(O)C(=O)C(C)=C[C@@H]23)[C@@H]2C(C)(C)[C@]12OC(C)=O` [PMA, phorbol 12-myristate 13-acetate], in data set [1] (setting [6]), the cell viability result was “could not produce the effect”.
Take `Nc1cc(-c2ccncc2)c[nH]c1=O` [amrinone]: in the data set on ischemic cardiac muscle, the “effect on ischemic cardiac muscle” value is “do not exhibit any effect” and the “size of infarct in ischemic cardiac muscle” value is “effective in reducing the size of infarct”.
As to `CC(C)c1ccc(C(=O)NC(=N)N)cc1S(C)(=O)=O` [cariporide], the “effect on injury caused by post-ischemic reperfusion” value in data set [4] was “ineffective”.
On to `CCCC(=O)Nc1ncnc2c1ncn2[C@@H]1O[C@@H]2COP(=O)(O)O[C@H]2[C@H]1OC(=O)CCC` [dbcAMP, N6,2'-O-dibutyriladenosine-3':5'-cyclic monophosphate], for which the cell viability entry in data set [1] (setting [6]) is “could not produce the effect”.
Regarding `Cc1ccc(C)c(OCCCC(C)(C)C(=O)O)c1` [gemfibrozil], the “effect of dbcAMP + PMA on cell viability” value in data set [1] is “completely abolished”.
`COc1ccc(Cl)cc1C(=O)NCCc1ccc(S(=O)(=O)NC(=O)NC2CCCCC2)cc1` [glibenclamide]: in data set [1], the “effect of dbcAMP + PMA on cell viability” value is “completely abolished”.
Regarding `Cc1[nH]c(=O)c(C#N)cc1-c1ccncc1` [milrinone, 1,6-dihydro-2-methyl-6-oxo[3,4'-bipyridine]-5-carbonitrile], in the data set on ischemic cardiac muscle, the “effect on ischemic cardiac muscle” value is reported as “do not exhibit any effect” and the “size of infarct in ischemic cardiac muscle” value is recorded as “effective in reducing the size of infarct”. Also, the “milrinone in the blood circulating bound to protein” value in data set [5] (blood) is reported as “about 70%”. Besides, in data set [5] (in vivo), the excretion / metabolism entry is “released into urine without being metabolized” and the half-life was 2 h.
